In patent US20070293398A1, “Method for Controlling Coniferous Plants” (BASF Aktiengesellschaft, priority 2004, published 2007):

Experiments:
[1] = tested on: wildling pine of the variety Loblolly (Pinus taeda); assay: Field experiment Site 4: wildling Loblolly pine control, damage rating 0 to 100%; format: in vivo; conditions: field Site 4, combined with phenyluracil I.1.4
Method: The evaluation for the damage caused by the chemical compositions was carried out using a scale from 0 to 100%, compared to the untreated control plants. Here, 0 means no damage and 100 means complete destruction of the plants.

[2] = tested on: pine species (loblolly pine); assay: Field experiment Site 2: percent brownout of pine species following May application; format: in vivo, Pinus taeda; conditions: Site 2, May application, 0.840 kg a.i./ha, 1 WAT
Method: For the following experiment the phenyluracil of formula I and optionally the herbicide B were applied as an aqueous spray liquor. Phenyluracil I.1.4 (phenyluracil of formula I) was used as emulsifiable concentrate (0.120 kg a.i./L). Imazapyr (herbicide B) was used as an emulsifiable concentrate (26.7% by weight; Chopper®/BASF Corporation). Glyphosate (herbicide B) was used as a soluble concentrate (53.8% by weight; Accord® Concentrate/Dow AgroScience) Methylated seed oil (MSO) was also added to the spray liquor in amounts of 25.0% volume/volume as a standard spray adjuvant. Water was used as the carrier. Spray carrier volume was 65 L/ha.
The spray liquor had the following general recipe (based on a spray volume of 65 L/ha):
Herbicide treatments were applied in the spring using a pole sprayer with a single KLC-9 flood tip spraying from a height of 335 cm. This application technique was used to simulate operational aerial applications as closely as practical. Treatment plots were 9×18 m.
Woody vegetation was assessed at treatment and in the fall of the year of treatment and one year after treatment (one and two growing seasons after treatment). The most common woody species on the site at treatment included loblolly pine (Pinus taeda), southern red oak (Quercus falcata), water oak (Quercus nigra) and Vaccinium spp. […]

SMILES	effect of addition on control of wildling pine (in words) [1]	brownout of pine species [2]
COc1c(Cl)ccc(Cl)c1C(=O)O [dicamba]	improved the control	–
CC(C)C1(C)N=C(c2ncccc2C(=O)O)NC1=O (centres unmarked) [imazapyr]	–	2%
